PubChem BioAssay AID1918994 (Molecular Pharmacology Branch, DTP, NCI, 2023)

tested on: 292921-168-R-J2-PDC complex spheroid growth; test: Anticancer human tumor 292921-168-R-J2-PDC patient-derived pancreatic carcinoma cell line growth inhibition [AhR]; conditions: second compound 1 µM; first compound 3.16 µM; active compounds read low
How it was run: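 Agents were dosed in half-log steps down from roughly clinical Cmax, or from 10 microM where Cmax was unknown, alone and with AhR antagonists. Read-out: percent test/control growth of tumor spheroids containing HUVEC and MSC stromal cells.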
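Note: spheroids exposed to compounds for seven days after three days of growth.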

Q: How did the viability, T/C turn out when Nc1ccccc1NC(=O)c1ccc(CNC(=O)OCc2cccnc2)cc1 + Cc1ccccc1N=Nc1ccc(NC(=O)c2ccnn2C)c(C)c1 was run?
A: 26.5%

Q: For O=C(C=Cc1cccc(S(=O)(=O)Nc2ccccc2)c1)NO + Cc1ccccc1N=Nc1ccc(NC(=O)c2ccnn2C)c(C)c1, which viability, T/C is on record?
A: 36.1%

Q: How did the viability, T/C turn out when O=C(c1cc(Cc2n[nH]c(=O)c3ccccc23)ccc1F)N1CCN(C(=O)C2CC2)CC1 + Cc1ccccc1N=Nc1ccc(NC(=O)c2ccnn2C)c(C)c1 was run?
A: 82.8%

same assay, conditions: second compound 1 µM; first compound 10 µM; active compounds read low

Q: How did the viability, T/C turn out when COc1cc(Nc2ncc3c(n2)-c2ccc(Cl)cc2C(c2c(F)cccc2OC)=NC3)ccc1C(=O)O + Cc1ccccc1N=Nc1ccc(NC(=O)c2ccnn2C)c(C)c1 was run?
A: 24%

Q: How did the viability, T/C turn out when Nc1ccccc1NC(=O)c1ccc(CNC(=O)OCc2cccnc2)cc1 + Cc1ccccc1N=Nc1ccc(NC(=O)c2ccnn2C)c(C)c1 was run?
A: 12.3%

Q: Which viability, T/C does the source give for O=C(C=Cc1cccc(S(=O)(=O)Nc2ccccc2)c1)NO + Cc1ccccc1N=Nc1ccc(NC(=O)c2ccnn2C)c(C)c1 here?
A: 3.74%

Q: How did the viability, T/C turn out when O=C(c1cc(Cc2n[nH]c(=O)c3ccccc23)ccc1F)N1CCN(C(=O)C2CC2)CC1 + Cc1ccccc1N=Nc1ccc(NC(=O)c2ccnn2C)c(C)c1 was run?
A: 67.4%

same assay, conditions: second compound 3.16 µM; first compound 0.000949 µM; active compounds read low

Q: CC(C)CC(NC(=O)C(Cc1ccccc1)NC(=O)c1cnccn1)B(O)O (stereo unspecified) + Cc1ccccc1N=Nc1ccc(NC(=O)c2ccnn2C)c(C)c1 was tested. Which viability, T/C did it give?
A: 77.5%

Q: Which viability, T/C does the source give for CCc1c2c(nc3ccc(O)cc13)-c1cc3c(c(=O)n1C2)COC(=O)[C@]3(O)CC + Cc1ccccc1N=Nc1ccc(NC(=O)c2ccnn2C)c(C)c1 here?
A: 54.4%

same assay, conditions: second compound 3.16 µM; first compound 0.003 µM; active compounds read low

Q: Which viability, T/C does the source give for CC(C)CC(NC(=O)C(Cc1ccccc1)NC(=O)c1cnccn1)B(O)O (stereo unspecified) + Cc1ccccc1N=Nc1ccc(NC(=O)c2ccnn2C)c(C)c1 here?
A: 82.8%

Q: For CCc1c2c(nc3ccc(O)cc13)-c1cc3c(c(=O)n1C2)COC(=O)[C@]3(O)CC + Cc1ccccc1N=Nc1ccc(NC(=O)c2ccnn2C)c(C)c1, which viability, T/C is on record?
A: 40.6%

same assay, conditions: second compound 3.16 µM; first compound 0.00949 µM; active compounds read low

Q: For CC(C)CC(NC(=O)C(Cc1ccccc1)NC(=O)c1cnccn1)B(O)O (stereo unspecified) + Cc1ccccc1N=Nc1ccc(NC(=O)c2ccnn2C)c(C)c1, which viability, T/C is on record?
A: 15.3%

Q: CCc1c2c(nc3ccc(O)cc13)-c1cc3c(c(=O)n1C2)COC(=O)[C@]3(O)CC + Cc1ccccc1N=Nc1ccc(NC(=O)c2ccnn2C)c(C)c1 was tested. Which viability, T/C did it give?
A: 16%

same assay, conditions: second compound 3.16 µM; first compound 0.03 µM; active compounds read low

Q: CC(C)CC(NC(=O)C(Cc1ccccc1)NC(=O)c1cnccn1)B(O)O (stereo unspecified) + Cc1ccccc1N=Nc1ccc(NC(=O)c2ccnn2C)c(C)c1 was tested. Which viability, T/C did it give?
A: 1.68%

Q: How did the viability, T/C turn out when CCc1c2c(nc3ccc(O)cc13)-c1cc3c(c(=O)n1C2)COC(=O)[C@]3(O)CC + Cc1ccccc1N=Nc1ccc(NC(=O)c2ccnn2C)c(C)c1 was run?
A: 9.67%

same assay, conditions: second compound 3.16 µM; first compound 0.0316 µM; active compounds read low

Q: With COc1cc(Nc2ncc3c(n2)-c2ccc(Cl)cc2C(c2c(F)cccc2OC)=NC3)ccc1C(=O)O + Cc1ccccc1N=Nc1ccc(NC(=O)c2ccnn2C)c(C)c1 as the molecule, how does the viability, T/C read?
A: 32.8%

Q: How did the viability, T/C turn out when Nc1ccccc1NC(=O)c1ccc(CNC(=O)OCc2cccnc2)cc1 + Cc1ccccc1N=Nc1ccc(NC(=O)c2ccnn2C)c(C)c1 was run?
A: 54%

Q: For O=C(C=Cc1cccc(S(=O)(=O)Nc2ccccc2)c1)NO + Cc1ccccc1N=Nc1ccc(NC(=O)c2ccnn2C)c(C)c1, which viability, T/C is on record?
A: 65.8%

Q: For O=C(c1cc(Cc2n[nH]c(=O)c3ccccc23)ccc1F)N1CCN(C(=O)C2CC2)CC1 + Cc1ccccc1N=Nc1ccc(NC(=O)c2ccnn2C)c(C)c1, which viability, T/C is on record?
A: 69.2%

same assay, conditions: second compound 3.16 µM; first compound 0.0949 µM; active compounds read low

Q: Which viability, T/C does the source give for CC(C)CC(NC(=O)C(Cc1ccccc1)NC(=O)c1cnccn1)B(O)O (stereo unspecified) + Cc1ccccc1N=Nc1ccc(NC(=O)c2ccnn2C)c(C)c1 here?
A: 2.65%

Q: Which viability, T/C does the source give for CCc1c2c(nc3ccc(O)cc13)-c1cc3c(c(=O)n1C2)COC(=O)[C@]3(O)CC + Cc1ccccc1N=Nc1ccc(NC(=O)c2ccnn2C)c(C)c1 here?
A: 5.09%

same assay, conditions: second compound 3.16 µM; first compound 0.1 µM; active compounds read low

Q: For COc1cc(Nc2ncc3c(n2)-c2ccc(Cl)cc2C(c2c(F)cccc2OC)=NC3)ccc1C(=O)O + Cc1ccccc1N=Nc1ccc(NC(=O)c2ccnn2C)c(C)c1, which viability, T/C is on record?
A: 35%

Q: Nc1ccccc1NC(=O)c1ccc(CNC(=O)OCc2cccnc2)cc1 + Cc1ccccc1N=Nc1ccc(NC(=O)c2ccnn2C)c(C)c1 was tested. Which viability, T/C did it give?
A: 55%

Q: Which viability, T/C does the source give for O=C(C=Cc1cccc(S(=O)(=O)Nc2ccccc2)c1)NO + Cc1ccccc1N=Nc1ccc(NC(=O)c2ccnn2C)c(C)c1 here?
A: 49%

Q: Which viability, T/C does the source give for O=C(c1cc(Cc2n[nH]c(=O)c3ccccc23)ccc1F)N1CCN(C(=O)C2CC2)CC1 + Cc1ccccc1N=Nc1ccc(NC(=O)c2ccnn2C)c(C)c1 here?
A: 64.4%

same assay, conditions: second compound 3.16 µM; first compound 0.3 µM; active compounds read low

Q: CC(C)CC(NC(=O)C(Cc1ccccc1)NC(=O)c1cnccn1)B(O)O (stereo unspecified) + Cc1ccccc1N=Nc1ccc(NC(=O)c2ccnn2C)c(C)c1 was tested. Which viability, T/C did it give?
A: 0.81%
